Test results from ChEMBL document CHEMBL4308854, “Novel indole-thiazolidinone conjugates: Design, synthesis and whole-cell phenotypic evaluation as a novel class of antimicrobial agents” (Eur J Med Chem, 2018).
Values after ≈ are worked out from the molar mass of the structure shown.

Experiments:
[1] = Selectivity index, ratio of GI50 for mouse RAW264.7 cells to MIC for Mycobacterium aurum infected in mouse RAW264.7 cells; type: toxicity, cell-based; conditions: read-out: Selectivity Index
Staphylococcus aureus [2] = assay: Antibacterial activity against Staphylococcus aureus RCMB 010028 assessed as diameter of zone inhibition after 24 hrs by agar well diffusion assay; type: functional
[3] = test system: Mycobacterium tuberculosis; assay: Antitubercular activity against Mycobacterium tuberculosis RCMB 010126 clinical isolate after 4 days by microplate alamar blue assay; type: functional; conditions: for MIC: Mycobacterium tuberculosis, RCMB 010126, 96 h
[4] = Stability in mouse RAW264.7 cells measured after 48 hrs; type: ADME, cell-based; conditions: raw264.7, 48 h
Candida albicans [5] = assay: Antifungal activity against Candida albicans RCMB 05036 after 24 hrs by serial dilution method; type: functional; conditions: RCMB 05036, 24 h
Aspergillus fumigatus [6] = assay: Antifungal activity against Aspergillus fumigatus RCMB 02568 assessed as diameter of zone inhibition after 48 hrs by agar well diffusion assay; type: functional
[7] = Cytotoxicity against mouse RAW264.7 cells; type: cell-based
Pseudomonas aeruginosa [8] = assay: Antibacterial activity against Pseudomonas aeruginosa RCMB 010043 after 24 hrs by serial dilution method; type: functional; conditions: RCMB 010043, 24 h
Staphylococcus aureus [9] = assay: Antibacterial activity against Staphylococcus aureus RCMB 010028 after 24 hrs by serial dilution method; type: functional; conditions: RCMB 010028, 24 h
Mycolicibacterium aurum = assay: Antitubercular activity against Mycobacterium aurum infected in mouse RAW264.7 cells measured after 48 hrs; type: functional
Escherichia coli [10] = assay: Antibacterial activity against Escherichia coli RCMB 010052 assessed as diameter of zone inhibition after 24 hrs by agar well diffusion assay; type: functional
Pseudomonas aeruginosa [11] = assay: Antibacterial activity against Pseudomonas aeruginosa RCMB 010043 assessed as diameter of zone inhibition after 24 hrs by agar well diffusion assay; type: functional
Candida albicans [12] = assay: Antifungal activity against Candida albicans RCMB 05036 assessed as diameter of zone inhibition after 48 hrs by agar well diffusion assay; type: functional
Escherichia coli [13] = assay: Antibacterial activity against Escherichia coli RCMB 010052 after 24 hrs by serial dilution method; type: functional; conditions: RCMB 010052, 24 h
Pseudomonas aeruginosa [14] = assay: Potency index, ratio of ciprofloxacin MIC to compound MIC for Pseudomonas aeruginosa RCMB 010043; type: functional
Aspergillus fumigatus [15] = assay: Antifungal activity against Aspergillus fumigatus RCMB 02568 after 24 hrs by serial dilution method; type: functional; conditions: RCMB 02568, 24 h
Aspergillus fumigatus [16] = assay: Potency index, ratio of amphotericin B MIC to compound MIC for antifungal activity against Aspergillus fumigatus RCMB 02568; type: functional
[17] = test system: Mycobacterium tuberculosis; assay: Potency index, ratio of isoniazid MIC to compound MIC for antitubercular activity against Mycobacterium tuberculosis RCMB 010126 clinical isolate; type: functional
Escherichia coli [18] = assay: Potency index, ratio of ciprofloxacin MIC to compound MIC for Escherichia coli RCMB 010052; type: functional
Staphylococcus aureus [19] = assay: Potency index, ratio of ciprofloxacin MIC to compound MIC for Staphylococcus aureus RCMB 010028; type: functional
Aspergillus fumigatus [20] = assay: Potency index, ratio of amphotericin B MIC to compound MIC for Aspergillus fumigatus RCMB 02568; type: functional
Staphylococcus aureus [21] = assay: Antibacterial activity against methicillin-resistant Staphylococcus aureus ATCC 33592 after 24 hrs by serial dilution method; type: functional; conditions: ATCC 33592, 24 h
WI-38 = assay: Cytotoxicity against human WI38 cells by MTT assay; type: cell-based
Enterococcus faecium = assay: Antibacterial activity against vancomycin-resistant Enterococcus faecium ATCC 700221 after 24 hrs by serial dilution method; type: functional; conditions: ATCC 700221, 24 h
[22] = Selectivity index, ratio of IC50 for human WI38 cells to MIC for Mycobacterium tuberculosis RCMB 010126 clinical isolate; type: toxicity; conditions: read-out: Selectivity Index
[23] = test system: Mycobacterium tuberculosis; assay: Antitubercular activity against Mycobacterium tuberculosis RCMB 010126 after 7 days by microplate alamar blue assay; type: functional; conditions: RCMB 010126, 168 h
[24] = Selectivity index, ratio of IC50 for human WI38 cells to MIC for Mycobacterium tuberculosis RCMB 010126; type: toxicity; conditions: read-out: Selectivity Index

SMILES	selectivity ratio [1]	diameter of the inhibition zone (DIZ) (Staphylococcus aureus [2])	inhibition (INH) [3]	MIC [3]	Stability [4]	MIC (Candida albicans [5])	diameter of the inhibition zone (DIZ) (Aspergillus fumigatus [6])	GI50 [7]	MIC (Pseudomonas aeruginosa [8])	MIC (Staphylococcus aureus [9])	MIC (Mycolicibacterium aurum)	diameter of the inhibition zone (DIZ) (Escherichia coli [10])	diameter of the inhibition zone (DIZ) (Pseudomonas aeruginosa [11])	diameter of the inhibition zone (DIZ) (Candida albicans [12])	MIC (Escherichia coli [13])	Ratio (Pseudomonas aeruginosa [14])	MIC (Aspergillus fumigatus [15])	Ratio (Aspergillus fumigatus [16])	Ratio (Escherichia coli [18])	Ratio (Staphylococcus aureus [19])	other results
CCOC(=O)c1sc(/N=C2\NC(=O)/C(=C3/C(=O)Nc4ccccc43)S2)nc1C	1.25	22.5 mm	72.14%	0.78 µg/mL (≈ 1.88 µM)	Stable	0.98 µg/mL (≈ 2.36 µM)	21.6 mm	125 µg/mL (≈ 302 µM)	1.95 µg/mL (≈ 4.7 µM)	0.98 µg/mL (≈ 2.36 µM)	100 µg/mL (≈ 241 µM)	22.4 mm	21.8 mm	22.7 mm	1.95 µg/mL (≈ 4.7 µM)	2	0.98 µg/mL (≈ 2.36 µM)	2	–	–	–
CCOC(=O)c1sc(/N=C2\NC(=O)/C(=C3/C(=O)Nc4ccc(Cl)cc43)S2)nc1C	< 0.625	23.1 mm	56.34%	0.39 µg/mL (≈ 0.869 µM)	Stable	0.49 µg/mL (≈ 1.09 µM)	22.7 mm	> 125 µg/mL	0.98 µg/mL (≈ 2.18 µM)	0.98 µg/mL (≈ 2.18 µM)	> 200 µg/mL	23.2 mm	22.6 mm	24.4 mm	0.98 µg/mL (≈ 2.18 µM)	4	1.95 µg/mL (≈ 4.34 µM)	–	2	2	Ratio [17]: 2; Ratio (Aspergillus fumigatus [20]): 2
CN[C@H](CC(C)C)C(=O)N[C@H]1C(=O)N[C@@H](CC(N)=O)C(=O)N[C@H]2C(=O)N[C@H]3C(=O)N[C@H](C(=O)N[C@H](C(=O)O)c4cc(O)cc(O)c4-c4cc3ccc4O)[C@H](O)c3ccc(c(Cl)c3)Oc3cc2cc(c3O[C@@H]2O[C@H](CO)[C@@H](O)[C@H](O)[C@H]2O[C@H]2C[C@](C)(N)[C@H](O)[C@H](C)O2)Oc2ccc(cc2Cl)[C@H]1O [VANCOMYCIN]	–	–	–	–	–	–	–	–	–	–	–	–	–	–	–	–	–	–	–	–	MIC (Staphylococcus aureus [21]): 1.95 µg/mL (≈ 1.35 µM)
CCOC(=O)c1sc(/N=C2\NC(=O)/C(=C3/C(=O)N(Cc4ccccc4)c4ccccc43)S2)nc1C	2.5	24.2 mm	87.38%	0.39 µg/mL (≈ 0.773 µM)	Stable	0.49 µg/mL (≈ 0.971 µM)	23.2 mm	500 µg/mL (≈ 991 µM)	1.95 µg/mL (≈ 3.86 µM)	1.95 µg/mL (≈ 3.86 µM)	200 µg/mL (≈ 396 µM)	24.8 mm	23.1 mm	25.2 mm	0.98 µg/mL (≈ 1.94 µM)	2	0.98 µg/mL (≈ 1.94 µM)	2	2	–	–
CC(=O)c1sc(/N=C2\NC(=O)/C(=C3/C(=O)N(C)c4ccccc43)S2)nc1C	> 5	23.4 mm	76.35%	0.39 µg/mL (≈ 0.979 µM)	Stable	0.49 µg/mL (≈ 1.23 µM)	23.2 mm	> 250 µg/mL	0.98 µg/mL (≈ 2.46 µM)	0.98 µg/mL (≈ 2.46 µM)	50 µg/mL (≈ 125 µM)	25.1 mm	23.2 mm	25.1 mm	0.49 µg/mL (≈ 1.23 µM)	4	0.98 µg/mL (≈ 2.46 µM)	2	4	2	IC50 (WI-38): 5.3 µg/mL (≈ 13.3 µM); Ratio [17]: 2; MIC (Enterococcus faecium): 62.5 µg/mL (≈ 157 µM); MIC (Staphylococcus aureus [21]): 15.6 µg/mL (≈ 39.2 µM); selectivity ratio [22]: 13; Ratio (Aspergillus fumigatus [20]): 2
CC(=O)c1sc(/N=C2\NC(=O)/C(=C3/C(=O)N(Cc4ccccc4)c4ccc(Cl)cc43)S2)nc1C	–	23.6 mm	80.34%	0.39 µg/mL (≈ 0.766 µM)	–	0.49 µg/mL (≈ 0.963 µM)	23.6 mm	–	0.98 µg/mL (≈ 1.93 µM)	0.98 µg/mL (≈ 1.93 µM)	–	25.6 mm	23.5 mm	25.3 mm	0.49 µg/mL (≈ 0.963 µM)	4	0.98 µg/mL (≈ 1.93 µM)	2	4	2	Ratio [17]: 2; Ratio (Aspergillus fumigatus [20]): 2
CC(=O)c1sc(/N=C2\NC(=O)/C(=C3/C(=O)Nc4ccc(Cl)cc43)S2)nc1C	–	22.1 mm	74.32%	0.78 µg/mL (≈ 1.86 µM)	–	0.49 µg/mL (≈ 1.17 µM)	22.9 mm	–	0.98 µg/mL (≈ 2.34 µM)	0.98 µg/mL (≈ 2.34 µM)	–	24.3 mm	22.5 mm	24.2 mm	0.49 µg/mL (≈ 1.17 µM)	4	0.98 µg/mL (≈ 2.34 µM)	2	4	2	Ratio (Aspergillus fumigatus [20]): 2
CCOC(=O)c1sc(/N=C2\NC(=O)/C(=C/c3cccnc3)S2)nc1C	–	–	–	–	–	–	–	–	–	–	–	–	–	–	–	–	–	–	–	–	MIC [23]: 1.56 µg/mL (≈ 4.17 µM); selectivity ratio [24]: 52.1
O=C(O)c1cn(C2CC2)c2cc(N3CCNCC3)c(F)cc2c1=O [CIPROFLOXACIN]	–	22.2 mm	–	–	–	–	–	–	3.9 µg/mL (≈ 11.8 µM)	1.95 µg/mL (≈ 5.89 µM)	–	24.3 mm	23.1 mm	–	1.95 µg/mL (≈ 5.89 µM)	–	–	–	–	–	MIC (Enterococcus faecium): 3.9 µg/mL (≈ 11.8 µM)
